Measured values from US9157064B2, “Methods for generating inner ear cells in vitro” (The Board of Trustees of the Leland Stanford Junior …, priority 2011, dated 2015).
“Also recorded” adds a separate entry of the source.

Experiments:
Format in all cases: cell-based, mouse
ESC-derived cultures = assay: Otic induction of ESC-derived embryoid body cultures (Pax2 immunostaining); details: ESC derivatives; not treated with any of the three initial factors, but treated with bFGF
Protocol: (§1) Embryoid bodies were transferred into fibronectin-coated 4-well dishes (Greiner) at 30 embryoid bodies per well and cultured for three days in DMEM/F12 (Invitrogen, mixed 1:1) supplemented with N2 and B27 (Invitrogen), bFGF (R&D Systems, 25 ng/ml), heparin sulfate (Sigma, 50 ng/ml), and ampicillin ([…]). FGF3 (recombinant human FGF-3, R&D Systems) and FGF10 (recombinant human FGF-10, R&D Systems) were used at 25 ng/ml in parallel experiments. The FGF receptor antagonist SU5402 (a gift from Pfizer R&D) was used at […]. After FGF-treatment, the cells were detached using 0.05% trypsin/EDTA (Sigma) in PBS, mildly triturated, and passed 1:10 into individual wells of 4-well dishes coated with either fibronectin, gelatin, MEFs, or mitotically inactivated embryonic (E18) chicken utricle stromal cells. Utricle stromal cells were prepared from 20 utricles whose sensory epithelia were removed after 40 min treatment with 0.5 mg/ml thermolysin (Sigma) in DMEM/F12 at 37 C. After addition of 5% serum, the sensory epithelia were removed and used in unrelated experiments. […]
(§2) For immunocytochemistry, the cells were fixed with 4% paraformaldehyde in PBS for 15 min at room temperature. […] Images were acquired with a Zeiss Axioimager/LSM 5 Exciter fluorescence and confocal microscope. […]

iPSC-derived cultures = assay: Otic induction of iPSC-derived embryoid body cultures (Pax2 immunostaining); details: iPSC derivatives; not treated with any of the three initial factors, but treated with bFGF
Protocol: as §1, §2

[1] = tested on: ESC-derived hair cell-like cell; assay: Mechanically induced currents of ESC-derived hair cell-like cells (patch clamp); details: local application of 1 mM DHSM to hair bundles, then mechanical stimulation
Protocol: (§3) nGFP-expressing hair cell-like cells were identified by fluorescence microscopy, and nearby hair bundle-like protrusions were imaged with a […] objective with brightfield optics. Recordings were conducted with an Axoclamp 200a (Axon Instruments) amplifier, interfaced with a DIGIDATA® 1332 board (Axon), and jClamp Software (Scisoft). Mechanical stimulation was done with a stiff glass probe attached to a piezo stack.
(§4) More specifically, cultured cells were placed onto the stage of an OLYMPUS® BX 51 fixed stage upright microscope and imaged using a 100× dipping objective using brightfield optics. Images were collected using a C2400 NARISHIGE® analog camera coupled via a framegrabber to a PC computer using Image J software. Soda glass electrodes, coated with ski wax (MR. ZOG'S SEX WAX®) to limit stray capacitance, of resistances 3-5MΩ, were used to record from both ES and iPS cells. The culture medium was replaced during electrophysiological recordings with a solution containing (in mM) 140 NaCl, 5 KCl, 1 MgCl2, 2.5 CaCl, 10 HEPES, 6 glucose, 2 pyruvate, 2 ascorbate, 2 creatine. […] Data was analyzed with ORIGIN® software (Microcal). […]
(§5) Adaptation is a complex process in which hair bundle dynamic range is enhanced and sensitivity maintained over large displacements (Eatock, 2000). […] The fast time constant measured was 0.5±0.4 ms (n=5) and the slow was 11±5 ms (n=5). […]

[2] = tested on: iPSC-derived hair cell-like cell; assay: Mechanically induced currents of iPSC-derived hair cell-like cells (patch clamp); details: local application of 1 mM DHSM to hair bundles, then mechanical stimulation
Protocol: as §3, §4, §5

Compound: bFGF: fibroblast growth factor FGF2 (bFGF), general otic inducer
- Pax2-expressing cells (ESC-derived cultures): 0.05±0.04%
- Pax2-expressing cells (iPSC-derived cultures): 0.1±0.09%

Compound: CN[C@@H]1[C@H](O[C@H]2[C@H](O[C@H]3[C@H](O)[C@@H](O)[C@H](NC(=N)N)[C@@H](O)[C@@H]3NC(=N)N)O[C@@H](C)[C@]2(O)CO)O[C@@H](CO)[C@H](O)[C@H]1O [DHSM, dihydrostreptomycin]
- mechanically induced (evoked) currents [1]: antagonized reversibly; also recorded: reversibly blocked
- mechanically induced (evoked) currents [2]: antagonized reversibly; also recorded: reversibly blocked
